Measured values taken from PubChem BioAssay (NCI).
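Five concentrations, 48 hours, 96-well plates. Abbreviation: GI50, concentration required for 50% inhibition of growth. TGI marks complete inhibition of growth.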

Tests used:
Assay in all cases: DTP human tumour cell line panel, 48 h
[1] = system: UACC-62 melanoma
[2] = system: SNB-19 CNS
[3] = system: MDA-MB-435
[4] = system: UO-31 renal
[5] = system: KM12 colon
[6] = system: TK-10 renal
[7] = system: ACHN renal
[8] = system: NCI-H23 lung
[9] = system: M14 melanoma
[10] = system: UACC-257 melanoma
[11] = system: OVCAR-5 ovarian
[12] = system: SF-268 CNS
[13] = system: COLO 205 colon
[14] = system: SW-620 colon
[15] = system: IGROV1 ovarian
[16] = system: DU-145 prostate
[17] = system: LOX IMVI melanoma
[18] = system: OVCAR-4 ovarian
[19] = system: NCI-H522 lung
[20] = system: SK-MEL-28 melanoma
[21] = system: SNB-75 CNS
[22] = system: K-562 leukemia
[23] = system: BT-549 breast
[24] = system: A498 renal
[25] = system: HCT-15 colon
[26] = system: HL-60(TB) leukemia
[27] = system: HT29 colon
[28] = system: HS 578T breast
[29] = system: HOP-92 NSCLC
[30] = system: MALME-3M melanoma
[31] = system: OVCAR-3 ovarian
[32] = system: RXF 393 renal
[33] = system: EKVX NSCLC
[34] = system: NCI/ADR-RES ovarian
[35] = system: HOP-62 NSCLC
[36] = system: HCC-2998 colon
[37] = system: OVCAR-8 ovarian
[38] = system: SK-OV-3 ovarian
[39] = system: SF-539 CNS
[40] = system: MCF7 breast
[41] = system: NCI-H226 lung
[42] = system: T-47D breast
[43] = system: A549 NSCLC
[44] = system: SK-MEL-5 melanoma
[45] = system: RPMI-8226 leukemia
[46] = system: U251 CNS
[47] = system: SK-MEL-2 melanoma
[48] = system: PC-3 prostate
[49] = system: SN12C renal
[50] = system: SF-295 CNS
[51] = system: CAKI-1 renal
[52] = system: CCRF-CEM leukemia
[53] = system: 786-0 renal
[54] = system: NCI-H460 lung
[55] = system: MOLT-4 leukemia
[56] = system: MDA-MB-231 breast
[57] = system: HCT-116 colon
[58] = system: SR leukemia

## Clc1nc(Cl)c2ncn(C/C=C/COc3cccc(OC/C=C/Cn4cnc5c(Cl)nc(Cl)nc54)c3)c2n1
[1]
  GI50: > 100 µM
  TGI: > 100 µM
[2]
  GI50: > 100 µM
  TGI: > 100 µM
[3]
  GI50: > 100 µM
  TGI: > 100 µM
[4]
  GI50: > 100 µM
  TGI: > 100 µM
[5]
  GI50: 56.5 µM
  TGI: > 100 µM
[6]
  GI50: > 100 µM
  TGI: > 100 µM
[7]
  GI50: > 100 µM
  TGI: > 100 µM
[8]
  GI50: > 100 µM
  TGI: > 100 µM
[9]
  GI50: 32.7 µM
  TGI: > 100 µM
[10]
  GI50: > 100 µM
  TGI: > 100 µM
[11]
  GI50: > 100 µM
  TGI: > 100 µM
[12]
  GI50: > 100 µM
  TGI: > 100 µM
[13]
  GI50: > 100 µM
  TGI: > 100 µM
[14]
  GI50: > 100 µM
  TGI: > 100 µM
[15]
  GI50: > 100 µM
  TGI: > 100 µM
[16]
  GI50: 14.7 µM
  TGI: 27.8 µM
[17]
  GI50: 25.9 µM
  TGI: > 100 µM
[18]
  GI50: 36.3 µM
  TGI: > 100 µM
[19]
  GI50: > 100 µM
  TGI: > 100 µM
[20]
  GI50: > 100 µM
  TGI: > 100 µM
[21]
  GI50: 57.1 µM
  TGI: > 100 µM
[22]
  GI50: 29.7 µM
  TGI: > 100 µM
[23]
  GI50: 66.1 µM
  TGI: > 100 µM
[24]
  GI50: > 100 µM
  TGI: > 100 µM
[25]
  GI50: 57.7 µM
  TGI: > 100 µM
[26]
  GI50: 14.7 µM
  TGI: 27.8 µM
[27]
  GI50: > 100 µM
  TGI: > 100 µM
[28]
  GI50: 39.4 µM
  TGI: > 100 µM
[29]
  GI50: > 100 µM
  TGI: > 100 µM
[30]
  GI50: > 100 µM
  TGI: > 100 µM
[31]
  GI50: 95 µM
  TGI: > 100 µM
[32]
  GI50: 65 µM
  TGI: > 100 µM
[33]
  GI50: > 100 µM
  TGI: > 100 µM
[34]
  GI50: > 100 µM
  TGI: > 100 µM
[35]
  GI50: 99.6 µM
  TGI: > 100 µM
[36]
  GI50: 42.1 µM
  TGI: > 100 µM
[37]
  GI50: > 100 µM
  TGI: > 100 µM
[38]
  GI50: > 100 µM
  TGI: > 100 µM
[39]
  GI50: > 100 µM
  TGI: > 100 µM
[40]
  GI50: 73.5 µM
  TGI: > 100 µM
[41]
  GI50: > 100 µM
  TGI: > 100 µM
[42]
  GI50: 99.8 µM
  TGI: > 100 µM
[43]
  GI50: > 100 µM
  TGI: > 100 µM
[44]
  GI50: 53.5 µM
  TGI: > 100 µM
[45]
  GI50: 25.3 µM
  TGI: > 100 µM
[46]
  GI50: 65.6 µM
  TGI: > 100 µM
[47]
  GI50: > 100 µM
  TGI: > 100 µM
[48]
  GI50: 42 µM
  TGI: > 100 µM
[49]
  GI50: > 100 µM
  TGI: > 100 µM
[50]
  GI50: > 100 µM
  TGI: > 100 µM
[51]
  GI50: > 100 µM
  TGI: > 100 µM
[52]
  GI50: 31 µM
  TGI: > 100 µM
[53]
  GI50: > 100 µM
  TGI: > 100 µM
[54]
  GI50: > 100 µM
  TGI: > 100 µM
[55]
  GI50: 26.5 µM
  TGI: > 100 µM
[56]
  GI50: 12.7 µM
  TGI: 25.3 µM

## CN(C)c1nc2oc(-c3ccccc3)c(-c3ccccc3)c2c2nnnn12
[1]
  TGI: > 100 µM
[2]
  TGI: > 100 µM
[3]
  TGI: > 100 µM
[4]
  TGI: > 100 µM
[5]
  TGI: > 100 µM
[6]
  TGI: > 100 µM
[7]
  TGI: > 100 µM
[8]
  TGI: > 100 µM
[9]
  TGI: > 100 µM
[10]
  TGI: > 100 µM
[11]
  TGI: > 100 µM
[12]
  TGI: > 100 µM
[13]
  TGI: > 100 µM
[14]
  TGI: > 100 µM
[15]
  TGI: > 100 µM
[16]
  TGI: > 100 µM
[17]
  TGI: > 100 µM
[18]
  TGI: > 100 µM
[19]
  TGI: > 100 µM
[20]
  TGI: > 100 µM
[57]
  TGI: > 100 µM
[21]
  TGI: > 100 µM
[22]
  TGI: > 100 µM
[24]
  TGI: > 100 µM
[25]
  TGI: > 100 µM
[26]
  TGI: 96.2 µM
[27]
  TGI: > 100 µM
[28]
  TGI: > 100 µM
[29]
  TGI: > 100 µM
[32]
  TGI: > 100 µM
[33]
  TGI: > 100 µM
[34]
  TGI: > 100 µM
[36]
  TGI: > 100 µM
[37]
  TGI: > 100 µM
[38]
  TGI: > 100 µM
[39]
  TGI: > 100 µM
[40]
  TGI: > 100 µM
[41]
  TGI: > 100 µM
[42]
  TGI: > 100 µM
[43]
  TGI: > 100 µM
[44]
  TGI: > 100 µM
[45]
  TGI: > 100 µM
[46]
  TGI: > 100 µM
[49]
  TGI: > 100 µM
[50]
  TGI: > 100 µM
[51]
  TGI: > 100 µM
[52]
  TGI: > 100 µM
[53]
  TGI: > 100 µM
[58]
  TGI: > 100 µM
[55]
  TGI: > 100 µM
[56]
  TGI: > 100 µM
